Columns and labels:
[1] = tested on: mRNA expressed from the genes (A) to (D) in rat liver; test: Behavior of genes (mRNA expression level, oligo-DNA microarray) in rat liver after 28-day oral administration; assay type: in vivo; conditions: mRNA vs vehicle control group; for Behavior of gene caused by administration of chemical substance, Gene No. 4846 / Behavior of gene caused by administration of chemical substance, Gene No. 2026 / Behavior of gene caused by administration of chemical substance, Gene No. 4218 / Behavior of gene caused by administration of chemical substance, Gene No. 6182 / Behavior of gene caused by administration of chemical substance, Gene No. 5600: gene group (A); for Behavior of gene caused by administration of chemical substance, Gene No. 4846: Unigene No. Rn.144554; for Behavior of gene caused by administration of chemical substance, Gene No. 2026 / Behavior of gene caused by administration of chemical substance, Gene No. 4218: Unigene No. Rn.167075; for Behavior of gene caused by administration of chemical substance, Gene No. 6182: Unigene No. Rn.5834; for Behavior of gene caused by administration of chemical substance, Gene No. 5600: Unigene No. Rn.9836; for Behavior of gene caused by administration of chemical substance, Gene No. 1494 / Behavior of gene caused by administration of chemical substance, Gene No. 2045 / Behavior of gene caused by administration of chemical substance, Gene No. 2203: gene group (B); for Behavior of gene caused by administration of chemical substance, Gene No. 1494: Unigene No. Rn.1430; for Behavior of gene caused by administration of chemical substance, Gene No. 2045: Unigene No. Rn.19329; for Behavior of gene caused by administration of chemical substance, Gene No. 2203: Unigene No. Rn.21240; for Behavior of gene caused by administration of chemical substance, Gene No. 533 / Behavior of gene caused by administration of chemical substance, Gene No. 725 / Behavior of gene caused by administration of chemical substance, Gene No. 1163 / Behavior of gene caused by administration of chemical substance, Gene No. 4973 / Behavior of gene caused by administration of chemical substance, Gene No. 4095 / Behavior of gene caused by administration of chemical substance, Gene No. 1334 / Behavior of gene caused by administration of chemical substance, Gene No. 6620 / Behavior of gene caused by administration of chemical substance, Gene No. 6303 / Behavior of gene caused by administration of chemical substance, Gene No. 5878 / Behavior of gene caused by administration of chemical substance, Gene No. 1131 / Behavior of gene caused by administration of chemical substance, Gene No. 1562 / Behavior of gene caused by administration of chemical substance, Gene No. 1741 / Behavior of gene caused by administration of chemical substance, Gene No. 893 / Behavior of gene caused by administration of chemical substance, Gene No. 6026 / Behavior of gene caused by administration of chemical substance, Gene No. 154 / Behavior of gene caused by administration of chemical substance, Gene No. 1993 / Behavior of gene caused by administration of chemical substance, Gene No. 813 / Behavior of gene caused by administration of chemical substance, Gene No. 2494 / Behavior of gene caused by administration of chemical substance, Gene No. 2546 / Behavior of gene caused by administration of chemical substance, Gene No. 3776 / Behavior of gene caused by administration of chemical substance, Gene No. 3929 / Behavior of gene caused by administration of chemical substance, Gene No. 1119 / Behavior of gene caused by administration of chemical substance, Gene No. 6742 / Behavior of gene caused by administration of chemical substance, Gene No. 5634: gene group (C); for Behavior of gene caused by administration of chemical substance, Gene No. 533: Unigene No. Rn.106184; for Behavior of gene caused by administration of chemical substance, Gene No. 725: Unigene No. Rn.108075; for Behavior of gene caused by administration of chemical substance, Gene No. 1163: Unigene No. Rn.11766; for Behavior of gene caused by administration of chemical substance, Gene No. 4973: Unigene No. Rn.118529; for Behavior of gene caused by administration of chemical substance, Gene No. 4095: Unigene No. Rn.119024; for Behavior of gene caused by administration of chemical substance, Gene No. 1334 / Behavior of gene caused by administration of chemical substance, Gene No. 6620: Unigene No. Rn.120914; for Behavior of gene caused by administration of chemical substance, Gene No. 6303: Unigene No. Rn.123063; for Behavior of gene caused by administration of chemical substance, Gene No. 5878: Unigene No. Rn.143213; for Behavior of gene caused by administration of chemical substance, Gene No. 1131: Unigene No. Rn.144946; for Behavior of gene caused by administration of chemical substance, Gene No. 1562: Unigene No. Rn.14744; for Behavior of gene caused by administration of chemical substance, Gene No. 1741: Unigene No. Rn.1647; for Behavior of gene caused by administration of chemical substance, Gene No. 893: Unigene No. Rn.164817; for Behavior of gene caused by administration of chemical substance, Gene No. 6026: Unigene No. Rn.167685; for Behavior of gene caused by administration of chemical substance, Gene No. 154: Unigene No. Rn.185941; for Behavior of gene caused by administration of chemical substance, Gene No. 1993: Unigene No. Rn.18728; for Behavior of gene caused by administration of chemical substance, Gene No. 813: Unigene No. Rn.201760; for Behavior of gene caused by administration of chemical substance, Gene No. 2494: Unigene No. Rn.23969; for Behavior of gene caused by administration of chemical substance, Gene No. 2546: Unigene No. Rn.24561; for Behavior of gene caused by administration of chemical substance, Gene No. 3776: Unigene No. Rn.43232; for Behavior of gene caused by administration of chemical substance, Gene No. 3929: Unigene No. Rn.4620; for Behavior of gene caused by administration of chemical substance, Gene No. 1119: Unigene No. Rn.9757; for Behavior of gene caused by administration of chemical substance, Gene No. 6742: Unigene No. Rn.9779; for Behavior of gene caused by administration of chemical substance, Gene No. 5634: Unigene No. Rn.9862; for Behavior of gene caused by administration of chemical substance, Gene No. 5726: gene group (D), Unigene No. Rn.9939
Summary of the method: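 Liver mRNA levels were compared with matched vehicle groups, with a shift of at least 1.5-fold up or down deemed significant unless its direction disagreed with other carcinogens. Test substances were dosed orally by gavage daily for 28 days to 5-week-old male F344 rats, four per group.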

liver = conditions: classification of the substance (Cr+/Cr−); cited from earlier work
rodent = conditions: classification of the substance (C+/C−); cited from earlier work
[2] = classification of the substance (M+/M−); cited from earlier work

Structure (SMILES) | Behavior of gene caused by administration of chemical substance, Gene No. 4846 [1] | Behavior of gene caused by administration of chemical substance, Gene No. 2026 [1] | Behavior of gene caused by administration of chemical substance, Gene No. 4218 [1] | Behavior of gene caused by administration of chemical substance, Gene No. 6182 [1] | Behavior of gene caused by administration of chemical substance, Gene No. 5600 [1] | Behavior of gene caused by administration of chemical substance, Gene No. 1494 [1] | Behavior of gene caused by administration of chemical substance, Gene No. 2045 [1] | Behavior of gene caused by administration of chemical substance, Gene No. 2203 [1] | Behavior of gene caused by administration of chemical substance, Gene No. 533 [1] | Behavior of gene caused by administration of chemical substance, Gene No. 725 [1] | Behavior of gene caused by administration of chemical substance, Gene No. 1163 [1] | Behavior of gene caused by administration of chemical substance, Gene No. 4973 [1] | Behavior of gene caused by administration of chemical substance, Gene No. 4095 [1] | Behavior of gene caused by administration of chemical substance, Gene No. 1334 [1] | Behavior of gene caused by administration of chemical substance, Gene No. 6620 [1] | Behavior of gene caused by administration of chemical substance, Gene No. 6303 [1] | Behavior of gene caused by administration of chemical substance, Gene No. 5878 [1] | Behavior of gene caused by administration of chemical substance, Gene No. 1131 [1] | Behavior of gene caused by administration of chemical substance, Gene No. 1562 [1] | Behavior of gene caused by administration of chemical substance, Gene No. 1741 [1] | further results
C#C[C@]1(O)CC[C@H]2[C@@H]3CCc4cc(O)ccc4[C@H]3CC[C@@]21C [TS019, Ethinylestradiol] | + | − | − | + | − | − | − | + | + | + | + | + | + | + | + | + | + | + | + | + | Behavior of gene caused by administration of chemical substance, Gene No. 893 [1]: +; Behavior of gene caused by administration of chemical substance, Gene No. 6026 [1]: +; Behavior of gene caused by administration of chemical substance, Gene No. 154 [1]: +; Behavior of gene caused by administration of chemical substance, Gene No. 1993 [1]: +; Behavior of gene caused by administration of chemical substance, Gene No. 813 [1]: −; Behavior of gene caused by administration of chemical substance, Gene No. 2494 [1]: +; Behavior of gene caused by administration of chemical substance, Gene No. 2546 [1]: +; Behavior of gene caused by administration of chemical substance, Gene No. 3776 [1]: +; Behavior of gene caused by administration of chemical substance, Gene No. 3929 [1]: +; Behavior of gene caused by administration of chemical substance, Gene No. 1119 [1]: +; Behavior of gene caused by administration of chemical substance, Gene No. 6742 [1]: −; Behavior of gene caused by administration of chemical substance, Gene No. 5634 [1]: +; Behavior of gene caused by administration of chemical substance, Gene No. 5726 [1]: −; Liver carcinogenicity (liver): Cr+; Carcinogenicity (rodent): C+; Mutagenicity by Ames test [2]: M−
ClC=C(Cl)Cl [TS022, Trichloroethylene] | + | − | − | + | − | + | + | + | − | − | − | − | − | − | − | − | − | − | − | − | Behavior of gene caused by administration of chemical substance, Gene No. 893 [1]: −; Behavior of gene caused by administration of chemical substance, Gene No. 6026 [1]: −; Behavior of gene caused by administration of chemical substance, Gene No. 154 [1]: −; Behavior of gene caused by administration of chemical substance, Gene No. 1993 [1]: −; Behavior of gene caused by administration of chemical substance, Gene No. 813 [1]: −; Behavior of gene caused by administration of chemical substance, Gene No. 2494 [1]: −; Behavior of gene caused by administration of chemical substance, Gene No. 2546 [1]: −; Behavior of gene caused by administration of chemical substance, Gene No. 3776 [1]: −; Behavior of gene caused by administration of chemical substance, Gene No. 3929 [1]: −; Behavior of gene caused by administration of chemical substance, Gene No. 1119 [1]: −; Behavior of gene caused by administration of chemical substance, Gene No. 6742 [1]: +; Behavior of gene caused by administration of chemical substance, Gene No. 5634 [1]: −; Behavior of gene caused by administration of chemical substance, Gene No. 5726 [1]: −; Liver carcinogenicity (liver): Cr−; Carcinogenicity (rodent): C+; Mutagenicity by Ames test [2]: M−
COc1ccc(O)c(C(C)(C)C)c1 [TS023, Butylated hydroxyanisole] | − | − | − | − | − | − | − | + | − | + | + | + | + | − | − | − | − | − | − | − | Behavior of gene caused by administration of chemical substance, Gene No. 893 [1]: −; Behavior of gene caused by administration of chemical substance, Gene No. 6026 [1]: −; Behavior of gene caused by administration of chemical substance, Gene No. 154 [1]: +; Behavior of gene caused by administration of chemical substance, Gene No. 1993 [1]: −; Behavior of gene caused by administration of chemical substance, Gene No. 813 [1]: −; Behavior of gene caused by administration of chemical substance, Gene No. 2494 [1]: −; Behavior of gene caused by administration of chemical substance, Gene No. 2546 [1]: −; Behavior of gene caused by administration of chemical substance, Gene No. 3776 [1]: −; Behavior of gene caused by administration of chemical substance, Gene No. 3929 [1]: −; Behavior of gene caused by administration of chemical substance, Gene No. 1119 [1]: −; Behavior of gene caused by administration of chemical substance, Gene No. 6742 [1]: −; Behavior of gene caused by administration of chemical substance, Gene No. 5634 [1]: −; Behavior of gene caused by administration of chemical substance, Gene No. 5726 [1]: −; Liver carcinogenicity (liver): Cr−; Carcinogenicity (rodent): C+; Mutagenicity by Ames test [2]: M−

— US20110039721A1, “METHOD FOR PREDICTION ABOUT CARCINOGENICITY OF SUBSTANCE IN RODENT” (Chemicals Evaluation and Research Institute, priority 2007, published 2011)
